Literature values, collected in PMC3547486 (ACS Chemical Neuroscience, 2012).

System: 5-HT release

For `Clc1cccc(N2CCNCC2)c1` [mCPP, m-chlorophenylpiperazine], the “5-HT releasing activity (in words)” value is listed as “potent 5-HT releaser”.
